In US20260042735A1, “BENZYLTRYPTAMINE COMPOUNDS” (priority 2021, published 2026):
Where two headings read alike, the source gives them in different places.

Assays:
[1] = molecular target: T1, human 5-HT2A receptor (Homo sapiens (Human), UniProt P28223); assay: 5HT2A competitive binding assay (Eurofins Cerep)
From the text: The compound is approximately equipotent to psilocybin based on data from the http:/PDSP.unc.edu/databases/pdsp.php.

[2] = molecular target: T2, 5HT2B receptor (Homo sapiens, UniProt P41595); assay: 5HT2B competitive binding assay
[3] = molecular target: T2, 5HT2B receptor; assay: 5HT2B functional antagonist assay; format: cell-based
Method: Quantification of myo-Inositol-1-phosphate was performed using HTRF.

[4] = molecular target: T3, 5HT2C receptor (Homo sapiens, UniProt P28335); conditions: phosphoinositol hydrolysis; read-out: Agonist potency at human 5-HT2C receptor; cited from earlier work
[5] = molecular target: human recombinant 5-HT1A (Homo sapiens (Human), UniProt P08908); assay: 5HT1A competitive binding assay (Eurofins Cerep); conditions: for Ki: [3H]8-OHDPAT 0.5 nM, HEK-293, Cheng Prusoff, read-out: 5HT1A binding constant Ki
[6] = molecular target: T1, human 5-HT2A receptor; assay: 5HT2A functional assay (agonism); format: cell-based
[7] = molecular target: T2, 5HT2B receptor; assay: 5HT2B (IP1) functional agonist assay; format: cell-based
[8] = Pharmacokinetics after i.v. administration in rats; format: in vivo; conditions: plasma, iv; rat, i.v. 1.0 mg/kg
Method: (§1) The compound of Example 1 was dispersed in water containing phosphate buffered saline at a rate of 1 mg/ml and then acidified to pH 4 to create a solution. The solution was administered to each of 3 rats (ca. 300 g each) at a rate of 1.0 mg/kg (ca. dose 0.33 ml, […]) via a catheter placed in the jugular vein. Animals were observed over a period of 12 h with counting the cumulative number head-twitch actions over each 10 min up to 2 hours and then for 10 min each at 3, 3.5 and 4 hours. Blood samples (0.25 ml) were collected via the catheter using 1 ml syringes into 0.8 ml K2EDTA tubes at 0.0833, 0.25, 0.5, 0.75, 1, 2, 4, 6 hours after the dose and placed on wet ice until processing. Psychological saline (0.25 ml) was reinjected after each blood draw via the catheter to the animal to flush the catheter and replenish blood volumes. The blood samples collected were centrifuged (3200 g, 5 min, 4 C) within 5 min of collection and the plasma recovered and placed in a cryovial and frozen in liquid nitrogen and stored at −80 C thereafter until analysis. A bioanalytical method was developed to quantify the compound in plasma using a Sciex 6500 Q-trap MSMS equipped with a standard LC system and after calibration with the compound of the example.

[9] = test system: rats; assay: Head-twitch counting during rat i.v. PK experiment; format: in vivo; conditions: i.v. 1.0 mg/kg, duration of PK experiment
Method: as §1

[10] = molecular target: Adrenergic Alpha 1A (Homo sapiens (Human), UniProt P35348); assay: Functional GCPR assay, inhibition, Adrenergic Alpha 1A; format: cell-based; conditions: read-out: IC50 (A1A) inhibition in functional GCPR assay
[11] = molecular target: Adrenergic Alpha 2A (Homo sapiens (Human), UniProt P08913); assay: Functional GCPR assay, inhibition, Adrenergic Alpha 2A; format: cell-based; conditions: read-out: IC50 (A2A) inhibition in functional GCPR assay
[12] = test system: 5HT2C receptor; conditions: binding Ki ratio
[13] = molecular target: T3, 5HT2C receptor; assay: biochemical
[14] = test system: patients; conditions: cited from earlier work
[15] = test system: cancer patients; conditions: high-dose, 6-month follow-up; cited from earlier work
[16] = test system: patients with alcohol dependence; conditions: 10 patients with alcohol dependence; cited from earlier work
[17] = test system: participants with tobacco addiction; conditions: cited from earlier work
[18] = 2A Binding, Table 1, all units nM
[19] = Table 1, all units nM, read-out: 2A Binding
[20] = Table 1, all units nM, read-out: 2B Binding
[21] = Table 1, all units nM, read-out: 2B IC50 Functional Antagonist
[22] = 125I-DOI 0.2 nM, CHO cells, Cheng Prusoff, read-out: 5HT2B binding constant Ki
[23] = Table 1, all units nM, read-out: 2B EC50 Functional Agonist

T3 sequence (P28335 33-458 limits assumed): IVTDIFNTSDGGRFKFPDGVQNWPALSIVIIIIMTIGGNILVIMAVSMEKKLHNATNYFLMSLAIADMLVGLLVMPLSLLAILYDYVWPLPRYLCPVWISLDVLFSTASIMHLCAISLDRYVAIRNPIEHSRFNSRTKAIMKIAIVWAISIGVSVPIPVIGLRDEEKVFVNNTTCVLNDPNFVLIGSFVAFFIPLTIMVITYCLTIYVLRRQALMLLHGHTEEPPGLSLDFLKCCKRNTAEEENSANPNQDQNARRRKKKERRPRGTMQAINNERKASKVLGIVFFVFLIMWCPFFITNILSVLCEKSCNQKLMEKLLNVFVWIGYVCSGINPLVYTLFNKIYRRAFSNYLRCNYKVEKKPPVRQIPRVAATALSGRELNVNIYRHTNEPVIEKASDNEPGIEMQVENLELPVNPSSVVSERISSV
T2 sequence (P41595 whole entry): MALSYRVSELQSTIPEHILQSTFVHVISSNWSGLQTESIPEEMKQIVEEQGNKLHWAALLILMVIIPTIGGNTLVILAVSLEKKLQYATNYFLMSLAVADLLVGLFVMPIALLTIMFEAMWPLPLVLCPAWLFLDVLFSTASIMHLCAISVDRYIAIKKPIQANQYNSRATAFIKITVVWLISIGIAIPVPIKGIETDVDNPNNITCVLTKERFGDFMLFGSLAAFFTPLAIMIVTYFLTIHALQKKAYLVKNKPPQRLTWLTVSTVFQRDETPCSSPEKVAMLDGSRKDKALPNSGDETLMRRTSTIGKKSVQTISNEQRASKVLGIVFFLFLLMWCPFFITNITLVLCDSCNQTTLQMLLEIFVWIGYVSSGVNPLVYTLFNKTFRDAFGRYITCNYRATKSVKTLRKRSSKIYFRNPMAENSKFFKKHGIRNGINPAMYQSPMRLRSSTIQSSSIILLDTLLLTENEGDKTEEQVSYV
Adrenergic Alpha 1A, sequence (P35348 whole entry): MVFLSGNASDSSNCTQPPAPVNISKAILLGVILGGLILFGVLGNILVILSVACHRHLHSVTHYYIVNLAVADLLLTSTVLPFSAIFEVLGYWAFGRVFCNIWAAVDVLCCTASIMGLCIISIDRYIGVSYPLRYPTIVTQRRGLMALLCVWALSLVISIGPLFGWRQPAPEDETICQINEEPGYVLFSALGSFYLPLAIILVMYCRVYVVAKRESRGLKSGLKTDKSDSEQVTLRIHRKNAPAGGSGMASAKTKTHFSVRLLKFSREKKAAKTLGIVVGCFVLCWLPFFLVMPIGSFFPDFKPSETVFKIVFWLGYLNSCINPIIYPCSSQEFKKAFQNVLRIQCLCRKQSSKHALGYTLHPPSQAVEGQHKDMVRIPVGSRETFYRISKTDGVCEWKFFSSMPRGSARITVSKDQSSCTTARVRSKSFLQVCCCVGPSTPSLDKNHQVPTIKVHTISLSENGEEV
Adrenergic Alpha 2A, sequence (P08913 whole entry): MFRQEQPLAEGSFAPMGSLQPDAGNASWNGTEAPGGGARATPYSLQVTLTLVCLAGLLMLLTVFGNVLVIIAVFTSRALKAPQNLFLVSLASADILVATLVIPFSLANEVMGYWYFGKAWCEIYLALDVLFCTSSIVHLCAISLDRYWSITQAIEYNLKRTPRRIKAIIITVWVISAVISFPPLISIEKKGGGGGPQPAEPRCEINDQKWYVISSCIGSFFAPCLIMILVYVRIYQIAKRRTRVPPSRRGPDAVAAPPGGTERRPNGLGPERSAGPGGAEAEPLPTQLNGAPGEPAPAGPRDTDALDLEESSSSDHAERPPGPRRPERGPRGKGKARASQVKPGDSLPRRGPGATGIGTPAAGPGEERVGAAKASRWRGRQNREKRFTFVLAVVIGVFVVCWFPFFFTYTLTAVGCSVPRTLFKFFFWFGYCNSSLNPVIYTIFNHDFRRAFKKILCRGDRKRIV

COc1ccc2[nH]cc(CCN(C)Cc3c(OC)cccc3OC)c2c1 [A, reference compound]
Ki [1, 18]: 1600 nM
Ki [2]: 402 nM
IC50 [3]: > 10000 nM

COc1cc(OC)c(CN(CCc2c[nH]c3ccc(OC)cc23)C(C)C)c(OC)c1 [B, reference compound]
Ki [1, 19]: 4600 nM
Ki [2, 20]: 4930 nM
IC50 [3, 21]: > 10000 nM

COc1ccc2[nH]cc(CCN(C)Cc3cc(OC)c(OC)c(OC)c3)c2c1 [C, reference compound]
Ki [1, 18]: 340 nM
Ki [2]: 76 nM
IC50 [3]: 2050 nM

CCCCn1cc(CCN(C)C)c2c(O)cccc21 [Compound 6]
EC50 [4]: ~600 nM

COc1ccc2[nH]cc(CCN(C)Cc3ccccc3OC)c2c1 [Example 1]
Ki [5]: 540 nM
Selectivity for 5HT2A over 5HT1A (Ki) ([5]; binding Ki ratio): about 5 fold
EC50 ([6]; HEK-293): 520 nM
Emax ([6]; at the highest concentrations, read-out: 5HT2A maximum efficacy): 80%
Ki [2, 22]: 180 nM
5HT2B functional agonist EC50 (IP1) ([7]; CHO cells, HTRF, serotonin 1 uM control): could not be determined for lack of activity
IC50 ([3]; CHO cells, background serotonin 10 uM, read-out: 5HT2B functional antagonist IC50): < 10000 nM
5HT2B functional mode (antagonist) ([3]; relative to serotonin): full antagonist
half-life [8]: 1.1 h
Head twitch activity [9]: no significant head twitch activity
IC50 [10]: 1800 nM
IC50 [11]: 1700 nM
Selectivity for 5HT2A over 5HT2C (Ki) [12]: about 6 fold
Ki [13]: 680 nM

COc1cccc(CN(C)CCc2c[nH]c3ccccc23)c1 [Example 10]
Ki [5]: 510 nM
Ki ([1]; 125I-DOI 0.1 nM, HEK-293, Cheng Prusoff, read-out: 5HT2A binding constant Ki): 14 nM
Ki [2, 22]: 380 nM
IC50 ([7]; Example 10, read-out: 5HT2B functional agonist mode IC50): 1050 nM
5HT2B functional agonist mode efficacy ([7]; up to 30 uM): < 20%
Ki [13]: 42 nM

CCN(CCc1c[nH]c2ccc(OC)cc12)Cc1ccccc1OC [Example 11, N-ethyl-2-(5-methoxy-1H-indol-3-yl)-N-(2-methoxybenzyl)ethan-1-amine]
Ki [1, 18]: 170 nM
Ki [2]: 173 nM
EC50 [7]: > 10000 nM

COc1ccc2[nH]cc(CCN(Cc3ccccc3OC)C(C)C)c2c1 [Example 12, N-(2-(5-methoxy-1H-indol-3-yl)ethyl)-N-(2-methoxybenzyl)propan-2-amine]
Ki [1, 19]: 277 nM
Ki [2, 20]: 341 nM
EC50 [7, 23]: > 10000 nM

C=CCN(CCc1c[nH]c2ccc(OC)cc12)Cc1ccccc1OC [Example 13, N-(2-(5-methoxy-1H-indol-3-yl)ethyl)-N-(2-methoxybenzyl)prop-2-en-1-amine]
Ki [1, 19]: 76 nM
Ki [2, 20]: 73 nM
EC50 [7, 23]: > 10000 nM
IC50 [3, 21]: > 10000 nM

COc1ccc(CN(C)CCc2c[nH]c3ccccc23)cc1 [Example 14, 2-(1H-indol-3-yl)-N-(4-methoxybenzyl)-N-methylethan-1-amine]
Ki [1, 19]: 280 nM
Ki [2, 20]: 69 nM
IC50 [3, 21]: 1670 nM

COc1cccc(CN(C)CCc2c[nH]c3ccccc23)c1OC [Example 15, N-(2,3-dimethoxybenzyl)-2-(H-indol-3-yl)-N-methylethan-1-amine]
Ki [1, 18]: 274 nM
Ki [2]: 48 nM
IC50 [3]: 1370 nM

COc1cccc(CN(CCc2c[nH]c3ccccc23)C(C)C)c1OC [Example 16, N-(2-(1H-indol-3-yl)ethyl)-N-(2,3-dimethoxybenzyl)prop-2-an-1-amine]
Ki [1, 19]: 2630 nM
Ki [2, 20]: 313 nM
EC50 [7, 23]: > 10000 nM
IC50 [3, 21]: > 10000 nM

CN(CCc1c[nH]c2ccccc12)Cc1ccccc1 [Example 17, N-(2-(1H-indol-3-yl)ethyl)-N-(benzyl)methan-1-amine]
Ki [1, 19]: 60 nM
Ki [2, 20]: 45 nM
IC50 [3, 21]: > 10000 nM

C/C=C\CN(CCc1c[nH]c2ccccc12)Cc1cccc(OC)c1 [Example 19, (Z)—N-(2-(1H-indol-3-yl)ethyl)-N-(3-methoxybenzyl)but-2-en-1-amine]
Ki [1, 19]: 31 nM
Ki [2, 20]: 44 nM
EC50 [7, 23]: > 10000 nM
IC50 [3, 21]: 3380 nM

C=C(C)CN(CCc1c[nH]c2ccccc12)Cc1cccc(OC)c1 [Example 20, N-(2-(1H-indol-3-yl)ethyl)-N-(3-methoxybenzyl)2-methylprop-2-en-1-amine]
Ki [1, 19]: 135 nM

CCc1cccc(CN(C)CCc2c[nH]c3ccccc23)c1 [Example 21, 2-(1H-indol-3-yl)-N-(3-ethylbenzyl)-N-methylethan-1-amine]
Ki [1, 19]: 5 nM
IC50 [3, 21]: 687 nM

CN(CCc1c[nH]c2ccccc12)Cc1cccc(O)c1 [Example 22, 3-(((2-(1H-indol-3-yl)ethyl)(methyl)amino)methyl)phenol]
Ki [1, 18]: 35 nM
Ki [2]: 31 nM
IC50 [3]: > 10000 nM

CN(CCc1c[nH]c2ccccc12)Cc1cccc(Br)c1 [Example 23, N-(3-bromobenzyl)-2-(1H-indol-3-yl)-N-methylethan-1-amine]
Ki [1, 19]: 11 nM
Ki [2, 20]: 22 nM
IC50 [3, 21]: 1620 nM

CN(CCc1c[nH]c2ccccc12)Cc1cccc(CO)c1 [Example 24, N-(2-(1H-indol-3-yl)ethyl)-N-(3-hydroxymethylbenzyl)methan-1-amine]
Ki [1, 19]: 59 nM
Ki [2, 20]: 50 nM
IC50 [3, 21]: 6990 nM

C#Cc1cccc(CN(C)CCc2c[nH]c3ccccc23)c1 [Example 25, 2-(1H-indol-3-yl)-N-(3-ethynylbenzyl)-N-methylethan-1-amine]
Ki [1, 19]: 6 nM
Ki [2, 20]: 13 nM
EC50 [7, 23]: 163 nM
IC50 [3, 21]: 2560 nM

CN(CCc1c[nH]c2ccccc12)Cc1cccc2c1OCO2 [Example 26]
Ki [1, 19]: 73 nM
Ki [2, 20]: 60 nM
IC50 [3, 21]: 1090 nM

COc1cccc(CN(C)CCc2c[nH]c3ccc(OC)cc23)c1 [Example 27, 2-(5-methoxy-1H-indol-3-yl)-N-(3-methoxybenzyl)-N-methylethan-1-amine]
Ki [1, 18]: 16 nM
Ki [2]: 16 nM

COc1ccccc1CN(C)CCc1c[nH]c2ccccc12 [Example 28, 2-(1H-indol-3-yl)-N-(2-methoxybenzyl)-N-methylethan-1-amine]
Ki [1, 18]: 130 nM
Ki [2]: 253 nM

C=CCN(CCc1c[nH]c2ccccc12)Cc1cccc(OC)c1 [Example 29, N-(2-(1H-indol-3-yl)ethyl)-N-(3-methoxybenzyl)prop-2-en-1-amine]
Ki [1, 19]: 28 nM
Ki [2, 20]: 21 nM

C[C@H]1CNCCc2ccc(Cl)cc21 [Locaserin]
Risk of cardiac valvulopathy [14]: no increased risk of cardiac valvulopathy

CN(C)CCc1c[nH]c2cccc(OP(=O)(O)O)c12 [psilocybin]
Participants continuing to show clinically significant decreases in depressed mood and anxiety [15]: about 80%
Alcohol use post administration [16]: significant decrease in alcohol use
Participants abstinent ([17]; 2.5 years after the target quit date): 75%
Participants with biologically verified 7-day point-prevalence abstinence ([17]; 6-month follow up): eighty
Participants biologically verified as abstinent ([17]; 12-month follow-up): 67%
